# Activity calls are given as the source filed them. No cut-off for these calls is given here.
# Tests used:
# [1] = in vitro; conditions: human, L02 cells and A549 cells
# [2] = test system: HepG2; experiment: Antiproliferative activity against human HepG2 cells measured after 48 hrs by MTT assay; conditions: HepG2, 48 h
# [3] = test system: A549; experiment: cells; conditions: Homo sapiens, A549, 48 h
# [4] = test system: A549; experiment: Antiproliferative activity against human A549 cells measured after 48 hrs in presence of NQO1 inhibitor dicoumarol by MTT assay; type: functional, cell-based; conditions: A549, 48 h
# [5] = test system: NCI-H596; experiment: Antiproliferative activity against human NCI-H596 cells measured after 48 hrs by MTT assay; type: functional, cell-based; conditions: NCI-H596, 48 h
# [6] = test system: L02; experiment: Cytotoxicity against human L02 cells measured after 48 hrs by MTT assay; type: cell-based; conditions: L02, 48 h
# [7] = target: NAD(P)H dehydrogenase [quinone] 1 (Homo sapiens, UniProt P15559); experiment: Substrate activity at recombinant human C-terminal His-tagged NQO1 (1 to 274 residues) expressed in Escherichia coli assessed as metabolic rate by measuring NADPH oxidation per micromol protein at 10 mmol/L measured at 5 secs interval for 1 min by UV-Visible Spectrophotometric method; type: ADME
# [8] = test system: HepG2; experiment: Cell cycle arrest in human HepG2 cells assessed as accumulation at G0/G1 phase at 0.6 uM measured after 24 hrs by propidium iodide staining based flow cytometry analysis (reference value: 46.76%); type: functional
# [9] = test system: HepG2; experiment: Induction of apoptosis in human HepG2 cells assessed as early apoptotic cells at 1.6 uM measured after 24 hrs by Annexin V-FITC/propidium iodide staining based flow cytometry (reference value: 2.65%); type: functional
# [10] = Toxicity in human HepG2 cells xenografted BALB/c athymic nude mouse assessed as change in body weight at 20 mg/kg, iv administered at 2 days interval 19 days; type: organism-based; conditions: in vivo, 456 h, time 19 day
# [11] = test system: HepG2; experiment: Cell cycle arrest in human HepG2 cells assessed as accumulation at G0/G1 phase at 1.2 uM measured after 24 hrs by propidium iodide staining based flow cytometry analysis (reference value: 46.76%); type: functional
# [12] = test system: HepG2; experiment: Induction of apoptosis in human HepG2 cells assessed as late apoptotic cells at 0.8 uM measured after 24 hrs by Annexin V-FITC/propidium iodide staining based flow cytometry (reference value: 2.27%); type: functional
# [13] = test system: HepG2; experiment: Induction of apoptosis in human HepG2 cells assessed as late apoptotic cells at 3.2 uM measured after 24 hrs by Annexin V-FITC/propidium iodide staining based flow cytometry (reference value: 2.27%); type: functional
# [14] = test system: HepG2; experiment: Antitumor activity against human HepG2 cells xenografted in BALB/c athymic nude mouse assessed as tumor growth inhibition at 20 mg/kg, iv administered at 2 days interval 19 days by caliper method relative to control; type: functional; conditions: 456 h, time 19 day, read-out: TGI
# [15] = test system: HepG2; experiment: Induction of apoptosis in human HepG2 cells assessed as early apoptotic cells at 0.8 uM measured after 24 hrs by Annexin V-FITC/propidium iodide staining based flow cytometry (reference value: 2.65%); type: functional
# [16] = test system: HepG2; experiment: Induction of apoptosis in human HepG2 cells assessed as viable cells at 1.6 uM measured after 24 hrs by Annexin V-FITC/propidium iodide staining based flow cytometry (reference value: 94.73%); type: functional; conditions: read-out: Activity
# [17] = test system: HepG2; experiment: Induction of apoptosis in human HepG2 cells assessed as late apoptotic cells at 1.6 uM measured after 24 hrs by Annexin V-FITC/propidium iodide staining based flow cytometry (reference value: 2.27%); type: functional
# [18] = test system: HepG2; experiment: Induction of apoptosis in human HepG2 cells assessed as necrotic cells at 3.2 uM measured after 24 hrs by Annexin V-FITC/propidium iodide staining based flow cytometry (reference value: 0.35%); type: functional
# [19] = test system: HepG2; experiment: Cell cycle arrest in human HepG2 cells assessed as accumulation at G0/G1 phase at 2.4 uM measured after 24 hrs by propidium iodide staining based flow cytometry analysis (reference value: 46.76%); type: functional
# [20] = test system: HepG2; experiment: Induction of apoptosis in human HepG2 cells assessed as necrotic cells at 0.8 uM measured after 24 hrs by Annexin V-FITC/propidium iodide staining based flow cytometry (reference value: 0.35%); type: functional
# [21] = test system: NCI-H596; experiment: Induction of apoptosis in human NCI-H596 cells assessed as necrotic cells at 1.6 uM measured after 24 hrs by Annexin V-FITC/propidium iodide staining based flow cytometry (reference value: 0.64%); type: functional
# [22] = test system: HepG2; experiment: Induction of apoptosis in human HepG2 cells assessed as viable cells at 0.8 uM measured after 24 hrs by Annexin V-FITC/propidium iodide staining based flow cytometry (reference value: 94.73%); type: functional; conditions: read-out: Activity
# [23] = test system: NCI-H596; experiment: Induction of reactive oxygen species production in human NCI-H596 cells at 5 uM measured after 5 hrs by DCFH-DA staining based flow cytometry; type: functional, cell-based
# [24] = test system: HepG2; experiment: Induction of apoptosis in human HepG2 cells assessed as necrotic cells at 1.6 uM measured after 24 hrs by Annexin V-FITC/propidium iodide staining based flow cytometry (reference value: 0.35%); type: functional
# [25] = test system: NCI-H596; experiment: Induction of apoptosis in human NCI-H596 cells assessed as late apoptotic cells at 1.6 uM measured after 24 hrs by Annexin V-FITC/propidium iodide staining based flow cytometry (reference value: 1.91%); type: functional
# [26] = test system: HepG2; experiment: Induction of reactive oxygen species production in human HepG2 cells at 5 uM measured after 5 hrs by DCFH-DA staining based flow cytometry; type: functional, cell-based
# [27] = test system: NCI-H596; experiment: Induction of apoptosis in human NCI-H596 cells assessed as viable cells at 1.6 uM measured after 24 hrs by Annexin V-FITC/propidium iodide staining based flow cytometry (reference value: 95.17%); type: functional; conditions: read-out: Activity
# [28] = test system: NCI-H596; experiment: Induction of apoptosis in human NCI-H596 cells assessed as early apoptotic cells at 1.6 uM measured after 24 hrs by Annexin V-FITC/propidium iodide staining based flow cytometry (reference value: 2.28%); type: functional
# [29] = test system: HepG2; experiment: Induction of apoptosis in human HepG2 cells assessed as viable cells at 3.2 uM measured after 24 hrs by Annexin V-FITC/propidium iodide staining based flow cytometry (reference value: 94.73%); type: functional; conditions: read-out: Activity
# [30] = test system: HepG2; experiment: Induction of apoptosis in human HepG2 cells assessed as early apoptotic cells at 3.2 uM measured after 24 hrs by Annexin V-FITC/propidium iodide staining based flow cytometry (reference value: 2.65%); type: functional
structure (smiles),measurement,setting,value
O=C1C(=O)c2ccccc2C2=C1C(c1cccc(O)c1)NC(=S)N2 (configuration not stated),selectivity ratio,[1],7.78
same,IC50,[2],2120 nM
same,IC50,[3],370 nM
same,IC50,[4],1710 nM
same,IC50,[5],2490 nM
same,IC50,[6],2880 nM
same,Drug metabolism,[7],1128 micromol/min/micromol protein
O=C1C(=O)c2ccccc2C2=C1C(c1ccc(Cl)c(O)c1)NC(=S)N2 (configuration not stated),selectivity ratio,[1],2.47
same,IC50,[2],1580 nM
same,IC50,[3],640 nM
same,IC50,[4],1410 nM
same,IC50,[5],1810 nM
same,IC50,[6],1580 nM
same,Drug metabolism,[7],734 micromol/min/micromol protein
O=C1C(=O)c2ccccc2C2=C1C(c1cc(O)ccc1Br)NC(=S)N2 (configuration not stated),selectivity ratio,[1],3.15
same,IC50,[2],1310 nM
same,IC50,[3],480 nM
same,IC50,[4],1550 nM
same,IC50,[5],1610 nM
same,IC50,[6],1510 nM
same,Drug metabolism,[7],1083 micromol/min/micromol protein
O=C1C(=O)c2ccccc2C2=C1C(c1cc(O)cc(Cl)c1)NC(=S)N2 (configuration not stated),selectivity ratio,[1],4.77
same,IC50,[2],1690 nM
same,IC50,[3],960 nM
same,IC50,[4],1430 nM
same,IC50,[5],17100 nM
same,IC50,[6],4580 nM
same,Drug metabolism,[7],941 micromol/min/micromol protein
COc1cccc2c1C(=O)c1c(O)c3c(c(O)c1C2=O)C[C@@](O)(C(=O)CO)C[C@@H]3O[C@H]1C[C@H](N)[C@H](O)[C@H](C)O1 [DOXORUBICIN],IC50,[3],1320 nM
same,IC50,[4],1200 nM
same,IC50,[5],1080 nM
same,IC50,[6],2180 nM
COc1ccc2c(c1)C(=O)C(=O)C1=C2NC(=S)NC1c1cccc(O)c1 (configuration not stated),Activity,[8],48.54%
same,selectivity ratio,[1],29.1
same,Activity,[9],9.89%
same,Activity,[10],Non-Toxic
same,IC50,[2],1600 nM
same,Activity,[11],49.6%
same,Activity,[12],8.52%
same,IC50,[3],720 nM
same,Activity,[13],15.3%
same,inhibition in vivo at 20 mg/kg,[14],58.1%
same,Activity,[15],7.21%
same,viability at 1.6 µM,[16],78.1%
same,Activity,[17],11.48%
same,Activity,[18],0.95%
same,Activity,[19],53%
same,Activity,[20],0.52%
same,Activity,[21],0.14%
same,IC50,[4],4550 nM
same,viability at 0.8 µM,[22],83.7%
same,Activity,[23],Active
same,IC50,[5],7070 nM
same,Activity,[24],0.53%
same,IC50,[6],21000 nM
same,Activity,[25],4.81%
same,Activity,[26],Active
same,Drug metabolism,[7],1530 micromol/min/micromol protein
same,viability at 1.6 µM,[27],90.8%
same,Activity,[28],4.22%
same,viability at 3.2 µM,[29],71.1%
same,Activity,[30],12.67%
O=C1C(=O)c2ccccc2C2=C1C(c1cc(O)ccc1F)NC(=S)N2 (configuration not stated),selectivity ratio,[1],1.59
same,IC50,[2],1190 nM
same,IC50,[3],980 nM
same,IC50,[4],1510 nM
same,IC50,[5],7690 nM
same,IC50,[6],1560 nM
same,Drug metabolism,[7],528 micromol/min/micromol protein
COc1ccc2c(c1)C1=C(C(=O)C2=O)C(c2cccc(O)c2)NC(=S)N1 (configuration not stated),selectivity ratio,[1],5.83
same,IC50,[2],1570 nM
same,IC50,[3],300 nM
same,IC50,[4],1190 nM
same,IC50,[5],2200 nM
same,IC50,[6],1750 nM
same,Drug metabolism,[7],997 micromol/min/micromol protein
CCOC(=O)C1=C(C)NC(=S)NC1c1cccc(O)c1 (configuration not stated) [MONASTROL],Drug metabolism,[7],Metabolite_Notdetected
O=C1C(=O)c2cccc(Br)c2C2=C1C(c1cccc(O)c1)NC(=S)N2 (configuration not stated),selectivity ratio,[1],0.86
same,IC50,[2],2890 nM
same,IC50,[3],1940 nM
same,IC50,[4],2020 nM
same,IC50,[5],1980 nM
same,IC50,[6],1660 nM
same,Drug metabolism,[7],2012 micromol/min/micromol protein
O=C1C(=O)c2ccc(Cl)cc2C2=C1C(c1cccc(O)c1)NC(=S)N2 (configuration not stated),selectivity ratio,[1],1.77
same,IC50,[2],1380 nM
same,IC50,[3],950 nM
same,IC50,[4],1260 nM
same,IC50,[5],1560 nM
same,IC50,[6],1680 nM
same,Drug metabolism,[7],2398 micromol/min/micromol protein
COc1cc2c(cc1OC)C1=C(C(=O)C2=O)C(c2cccc(O)c2)NC(=S)N1 (configuration not stated),selectivity ratio,[1],0.97
same,IC50,[2],1530 nM
same,IC50,[3],1770 nM
same,IC50,[4],1490 nM
same,IC50,[5],1760 nM
same,IC50,[6],1710 nM
same,Drug metabolism,[7],614 micromol/min/micromol protein
O=C1C(=O)c2ccccc2C2=C1C(c1cccc(O)c1Cl)NC(=S)N2 (configuration not stated),selectivity ratio,[1],1.61
same,IC50,[2],1400 nM
same,IC50,[3],1020 nM
same,IC50,[4],1330 nM
same,IC50,[5],3090 nM
same,IC50,[6],1640 nM
same,Drug metabolism,[7],1273 micromol/min/micromol protein
Cc1cc(O)cc(C2NC(=S)NC3=C2C(=O)C(=O)c2ccccc23)c1 (configuration not stated),selectivity ratio,[1],17.2
same,IC50,[2],1340 nM
same,IC50,[3],490 nM
same,IC50,[4],1210 nM
same,IC50,[5],10900 nM
same,IC50,[6],8410 nM
same,Drug metabolism,[7],539 micromol/min/micromol protein
O=C1C(=O)c2cc(F)ccc2C2=C1C(c1cccc(O)c1)NC(=S)N2 (configuration not stated),selectivity ratio,[1],1.71
same,IC50,[2],1340 nM
same,IC50,[3],870 nM
same,IC50,[4],1590 nM
same,IC50,[5],1580 nM
same,IC50,[6],1490 nM
same,Drug metabolism,[7],1513 micromol/min/micromol protein
COc1ccc2c(c1)C1=C(C(=O)C2=O)C(c2cc(C)cc(O)c2)NC(=S)N1 (configuration not stated),selectivity ratio,[1],5.81
same,IC50,[2],1700 nM
same,IC50,[3],320 nM
same,IC50,[4],1500 nM
same,IC50,[5],2520 nM
same,IC50,[6],1860 nM
same,Drug metabolism,[7],1427 micromol/min/micromol protein
O=C1C(=O)c2ccccc2C2=C1C(c1cc(O)cc(Br)c1)NC(=S)N2 (configuration not stated),selectivity ratio,[1],1.26
same,IC50,[2],3200 nM
same,IC50,[3],2420 nM
same,IC50,[4],3000 nM
same,IC50,[5],7600 nM
same,IC50,[6],3050 nM
same,Drug metabolism,[7],852 micromol/min/micromol protein
CC1(C)CCC2=C(O1)c1ccccc1C(=O)C2=O [LAPACHONE],selectivity ratio,[1],1.37
same,IC50,[2],2830 nM
same,IC50,[3],3320 nM
same,inhibition in vivo at 20 mg/kg,[14],67.4%
same,IC50,[4],6000 nM
same,Activity,[23],Active
same,IC50,[5],5060 nM
same,IC50,[6],4540 nM
same,Activity,[26],Active
